Assay results taken from ChEMBL document CHEMBL1137069, “Design, synthesis and anti-microbial activity of 1H-pyrazole carboxylates” (2004).
Values joined by “and” are separate entries in the source; they are usually repeats but may differ in a detail not shown here. Identical values can stand only once.

What was measured:
Format in all cases: functional
Alternaria alternata [1] = test: Antifungal activity against Alternaria alternata was measured as mycelial growth at 0.1 mg/mL concentration
Thanatephorus cucumeris [2] = test: Antifungal activity against Rhizoctonia solani was determined at 0.5 mg/mL concentration
Staphylococcus aureus [3] = test: Antibacterial activity against Staphylococcus aureus was measured as area of inhibition zone at 0.1 mg/mL concentration
Pseudomonas aeruginosa [4] = test: Antibacterial activity against Pseudomonas aeruginosa was determined at 0.1 mg/mL concentration
Enterococcus faecalis [5] = test: Antibacterial activity against […] was measured as area of inhibition zone at 0.1 mg/mL concentration
[6] = Antibacterial activity against Escherichia coli was measured as area of inhibition zone at 0.1 mg/mL concentration
Curvularia lunata [7] = test: Antifungal activity against Curvularia lunata was determined at 0.5 mg/mL concentration
[8] = Antifungal activity against Bipolaris oryzae was determined at 0.5 mg/mL concentration
Escherichia coli [9] = test: Antibacterial activity against Escherichia coli was determined at 0.1 mg/mL concentration
Escherichia coli [10] = test: Antibacterial activity against Escherichia coli was determined at 0.5 mg/mL concentration
Thanatephorus cucumeris [11] = test: Antifungal activity against Rhizoctonia solani was measured as mycelial growth at 0.5 mg/mL concentration
Enterococcus faecalis [12] = test: Antibacterial activity against […] was determined at 0.1 mg/mL concentration
Alternaria alternata [13] = test: Antifungal activity against Alternaria alternata was determined at 0.1 mg/mL concentration
Thanatephorus cucumeris [14] = test: Antifungal activity against Rhizoctonia solani was determined at 0.1 mg/mL concentration
Fusarium oxysporum [15] = test: Antifungal activity against Fusarium oxysporum was determined at 0.1 mg/mL concentration
Fusarium oxysporum [16] = test: Antifungal activity against Fusarium oxysporum was measured as mycelial growth at 0.5 mg/mL concentration
Fusarium oxysporum [17] = test: Antifungal activity against Fusarium oxysporum was determined at 0.5 mg/mL concentration
Staphylococcus aureus [18] = test: Antibacterial activity against Staphylococcus aureus was determined at 0.1 mg/mL concentration
Fusarium oxysporum [19] = test: Antifungal activity against Fusarium oxysporum was measured as mycelial growth at 0.1 mg/mL concentration
[20] = Antifungal activity against Bipolaris oryzae was measured as mycelial growth at 0.5 mg/mL concentration
Curvularia lunata [21] = test: Antifungal activity against Curvularia lunata was determined at 0.1 mg/mL concentration
Curvularia lunata [22] = test: Antifungal activity against Curvularia lunata was measured as mycelial growth at 0.5 mg/mL concentration
Alternaria alternata [23] = test: Antifungal activity against Alternaria alternata was determined at 0.5 mg/mL concentration
Alternaria alternata [24] = test: Antifungal activity against Alternaria alternata was measured as mycelial growth at 0.5 mg/mL concentration
Pseudomonas aeruginosa [25] = test: Antibacterial activity against Pseudomonas aeruginosa was measured as area of inhibition zone at 0.1 mg/mL concentration
Curvularia lunata [26] = test: Antifungal activity against Curvularia lunata was measured as mycelial growth at 0.1 mg/mL concentration
[27] = Antifungal activity against Bipolaris oryzae was measured as mycelial growth at 0.1 mg/mL concentration
Enterococcus faecalis [28] = test: Antibacterial activity against […] was determined at 0.5 mg/mL concentration
Thanatephorus cucumeris [29] = test: Antifungal activity against Rhizoctonia solani was measured as mycelial growth at 0.1 mg/mL concentration
Pseudomonas aeruginosa [30] = test: Antibacterial activity against Pseudomonas aeruginosa was determined at 0.5 mg/mL concentration
Staphylococcus aureus [31] = test: Antibacterial activity against Staphylococcus aureus was determined at 0.5 mg/mL concentration
[32] = Antifungal activity against Bipolaris oryzae was determined at 0.1 mg/mL concentration

CCOC(=O)c1cn(-c2ccc([N+](=O)[O-])cc2[N+](=O)[O-])nc1-c1ccccc1
Mycelial growth (Alternaria alternata [1]): 5.5 cm
inhibition at 500 µg/mL (Thanatephorus cucumeris [2]): 26.6%
Inhibition Zone (Staphylococcus aureus [3]): 7.6 cm and 3.6 cm
inhibition at 100 µg/mL (Pseudomonas aeruginosa [4]): 20%
zone of inhibition at 100 µg/mL (Enterococcus faecalis [5]): 74 mm
Inhibition Zone [6]: 4.3 cm and 7.2 cm
zone of inhibition at 100 µg/mL ([6]; Escherichia coli): 39 mm
inhibition at 500 µg/mL (Curvularia lunata [7]): 57.8%
inhibition at 500 µg/mL [8]: 51.1%
inhibition at 100 µg/mL (Escherichia coli [9]): 43.3%
inhibition at 500 µg/mL (Escherichia coli [10]): 80%
Mycelial growth (Thanatephorus cucumeris [11]): 6.6 cm
inhibition at 100 µg/mL (Enterococcus faecalis [12]): 47.8%
inhibition at 100 µg/mL (Alternaria alternata [13]): 38.9%
inhibition at 100 µg/mL (Thanatephorus cucumeris [14]): 11.1%
inhibition at 100 µg/mL (Fusarium oxysporum [15]): 41.1%
Mycelial growth (Fusarium oxysporum [16]): 3 cm
inhibition at 500 µg/mL (Fusarium oxysporum [17]): 66.7%
inhibition at 100 µg/mL (Staphylococcus aureus [18]): 40%
Mycelial growth (Fusarium oxysporum [19]): 5.3 cm
Mycelial growth [20]: 4.4 cm
inhibition at 100 µg/mL (Curvularia lunata [21]): 37.8%
Mycelial growth (Curvularia lunata [22]): 3.8 cm
inhibition at 500 µg/mL (Alternaria alternata [23]): 57.8%
Mycelial growth (Alternaria alternata [24]): 3.8 cm
Inhibition Zone (Pseudomonas aeruginosa [25]): 2.2 cm
zone of inhibition at 100 µg/mL (Pseudomonas aeruginosa [25]; Pseudomonas aeruginosa): 18 mm
Mycelial growth (Curvularia lunata [26]): 5.6 cm
Mycelial growth [27]: 5.6 cm
inhibition at 500 µg/mL (Enterococcus faecalis [28]): 82.2%
Mycelial growth (Thanatephorus cucumeris [29]): 8 cm
inhibition at 500 µg/mL (Pseudomonas aeruginosa [30]): 24.4%
inhibition at 500 µg/mL (Staphylococcus aureus [31]): 84.4%
inhibition at 100 µg/mL [32]: 37.8%
